BindingDB's records for PubMed 32942081 (Jamia Millia Islamia, 2020)

Molecular target: T1, Amine oxidase [flavin-containing] B (Homo sapiens, UniProt P27338)
T1 sequence (P27338 whole entry): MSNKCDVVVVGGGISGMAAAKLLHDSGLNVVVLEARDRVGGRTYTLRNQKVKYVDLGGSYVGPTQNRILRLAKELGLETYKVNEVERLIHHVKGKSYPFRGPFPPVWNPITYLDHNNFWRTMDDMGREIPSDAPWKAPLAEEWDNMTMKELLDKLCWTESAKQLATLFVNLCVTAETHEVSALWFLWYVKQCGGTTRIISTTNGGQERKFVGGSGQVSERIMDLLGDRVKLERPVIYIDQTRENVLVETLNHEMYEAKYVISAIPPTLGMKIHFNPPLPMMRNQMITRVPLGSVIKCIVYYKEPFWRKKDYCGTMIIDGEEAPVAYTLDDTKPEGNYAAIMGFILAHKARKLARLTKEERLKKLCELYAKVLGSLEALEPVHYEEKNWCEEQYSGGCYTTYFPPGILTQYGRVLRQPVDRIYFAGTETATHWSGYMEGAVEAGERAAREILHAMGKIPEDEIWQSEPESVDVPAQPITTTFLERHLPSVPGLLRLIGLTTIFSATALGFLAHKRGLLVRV
Assay: Inhibition of human MAO-B using tyramine as substrate by amplex red assay

IC50: 1.9 nM
SMILES: Cc1ccc(C2=NO[C@@H](c3ccc(Cl)c(Cl)c3)C2)cc1
